In PubChem BioAssay AID248 (DTP/NCI, 2004):
Toxic doses and inconclusive results are not listed. Rule as the data show it: active = T/C of 150% or more; inactive = T/C below 125%.

Test system: L1210 leukemia ip in BDF1 mice, survival T/C
Assay: NCI In Vivo Anticancer Drug Screen. Data for tumor model L1210 Leukemia (intraperitoneal) in B6D2F1 (BDF1) mice
Settings: endpoint: mean survival time, higher = longer survival
How it was run: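 In this screen, tumor-bearing mice given compound are compared to those given vehicle, and their survival values are reported as a treated-to-control quotient.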

[1] = dose: 100.0 mg/kg/injection, schedule: Q04DX003 (ip), vehicle: Klucel (hydroxypropylcellulose) (HPC)
[2] = dose: 200.0 mg/kg/injection, schedule: Q04DX003 (ip), vehicle: Klucel (hydroxypropylcellulose) (HPC)
[3] = dose: 400.0 mg/kg/injection, schedule: Q04DX003 (ip), vehicle: Klucel (hydroxypropylcellulose) (HPC)
[4] = dose: 50.0 mg/kg/injection, schedule: Q01DX001 (ip), vehicle: saline
[5] = dose: 100.0 mg/kg/injection, schedule: Q01DX001 (ip), vehicle: saline
[6] = dose: 100.0 mg/kg/injection, schedule: Q01DX009 (ip), vehicle: Klucel (hydroxypropylcellulose) (HPC)
[7] = dose: 200.0 mg/kg/injection, schedule: Q01DX001 (ip), vehicle: saline
[8] = dose: 200.0 mg/kg/injection, schedule: Q01DX009 (ip), vehicle: Klucel (hydroxypropylcellulose) (HPC)
[9] = dose: 400.0 mg/kg/injection, schedule: Q01DX001 (ip), vehicle: saline
[10] = dose: 400.0 mg/kg/injection, schedule: Q01DX009 (ip), vehicle: Klucel (hydroxypropylcellulose) (HPC)
[11] = dose: 100.0 mg/kg/injection, schedule: Q04DX002 (ip), vehicle: Klucel (hydroxypropylcellulose) (HPC)
[12] = dose: 200.0 mg/kg/injection, schedule: Q04DX002 (ip), vehicle: Klucel (hydroxypropylcellulose) (HPC)
[13] = dose: 100.0 mg/kg/injection, schedule: Q04DX003 (ip), vehicle: water
[14] = dose: 200.0 mg/kg/injection, schedule: Q04DX003 (ip), vehicle: water
[15] = dose: 400.0 mg/kg/injection, schedule: Q04DX003 (ip), vehicle: water

Measured: T/C

COC(=O)CCC(C)C1CCC2C3CCC4CC(OC(C)=O)CCC4(C)C3CCC12C (configuration not stated)
inactive: dose: 100.0 mg/kg/injection, schedule: Q01DX001 (ip), vehicle: saline with Tween-80 95 % of control | dose: 200.0 mg/kg/injection, schedule: Q01DX001 (ip), vehicle: saline with Tween-80 95 % of control | dose: 400.0 mg/kg/injection, schedule: Q01DX001 (ip), vehicle: saline with Tween-80 89 % of control

O=C1C2C3C=CC(CC3)C2S(=O)(=O)C2C3C=CC(CC3)C12 (configuration not stated)
inactive: dose: 25.0 mg/kg/injection, schedule: Q04DX002 (ip), vehicle: gum acacia 96 % of control | dose: 50.0 mg/kg/injection, schedule: Q04DX002 (ip), vehicle: gum acacia 104 % of control | dose: 100.0 mg/kg/injection, schedule: Q04DX002 (ip), vehicle: gum acacia 100 % of control

CC(C)CNS(=O)(=O)c1ccc(Cl)c([N+](=O)[O-])c1
inactive: [1] 99 % of control | [2] 97 % of control | [3] 106 % of control

C/C(CCC1=CC=CC1=O)=N\NC(N)=O
inactive: dose: 100.0 mg/kg/injection, schedule: Q01DX001 (ip), vehicle: other 98 % of control

O=S(Cc1ccccc1)Cc1ccccc1
inactive: [4] 110 % of control | [5] 110 % of control | [6] 103 % of control | [1] 90 % of control | [7] 103 % of control | [8] 100 % of control | [2] 97 % of control | [9] 100 % of control | [10] 102 % of control | [3] 100 % of control

O=C(CCCNC(=O)OCc1ccccc1)NCCCCCCNCCCCCCNC(=O)CCCNC(=O)OCc1ccccc1
inactive: [4] 95 % of control | [5] 95 % of control | [7] 98 % of control | [9] 98 % of control

O=C(COc1ccc(Cl)c(Cl)c1)Nc1ccc[n+](Cc2ccc(Cl)c(Cl)c2)c1
inactive: [1] 90 % of control | [2] 97 % of control | [3] 104 % of control

O=S1c2ccccc2Sc2ccccc21
inactive: dose: 100.0 mg/kg/injection, schedule: Q04DX003 (ip), vehicle: saline with Tween-80 103 % of control | dose: 200.0 mg/kg/injection, schedule: Q04DX003 (ip), vehicle: saline with Tween-80 97 % of control | dose: 400.0 mg/kg/injection, schedule: Q04DX003 (ip), vehicle: saline with Tween-80 100 % of control

O=C(c1ccccc1)c1[nH]c2ccccc2c1-c1ccccc1
inactive: dose: 100.0 mg/kg/injection, schedule: Q04DX002 (ip), vehicle: saline with Tween-80 103 % of control | dose: 200.0 mg/kg/injection, schedule: Q04DX002 (ip), vehicle: saline with Tween-80 107 % of control | dose: 400.0 mg/kg/injection, schedule: Q04DX002 (ip), vehicle: saline with Tween-80 100 % of control

C=COCCN1CCN(CCCN2c3ccccc3Sc3ccc(C(F)(F)F)cc32)CC1
inactive: dose: 3.13 mg/kg/injection, schedule: Q04DX003 (ip), vehicle: saline 102 % of control | dose: 6.25 mg/kg/injection, schedule: Q04DX003 (ip), vehicle: saline 102 % of control | dose: 12.5 mg/kg/injection, schedule: Q04DX003 (ip), vehicle: saline 107 % of control

CN(C)CCN1C(=O)c2ccccc2N(C)c2ccccc21
inactive: dose: 25.0 mg/kg/injection, schedule: Q04DX003 (ip), vehicle: saline 96 % of control | dose: 50.0 mg/kg/injection, schedule: Q04DX003 (ip), vehicle: saline 96 % of control

O=C(COc1ccc(Cl)cc1Cl)NCCBr
inactive: [6] 91 % of control | [8] 92 % of control | [10] 96 % of control

COC(=O)C(Nc1ccc([N+](=O)[O-])cc1[N+](=O)[O-])C(C)OS(=O)(=O)c1ccc(C)cc1 (configuration not stated)
inactive: [5] 95 % of control | [7] 93 % of control | [9] 92 % of control

O=C(O)COc1c(F)cc([N+](=O)[O-])cc1[N+](=O)[O-]
inactive: [11] 106 % of control | [12] 91 % of control | dose: 400.0 mg/kg/injection, schedule: Q04DX002 (ip), vehicle: Klucel (hydroxypropylcellulose) (HPC) 111 % of control

COc1c(NC(=O)c2cccc(C(=O)Nc3cccc([N+](=O)[O-])c3OC)c2)cccc1[N+](=O)[O-]
inactive: [6] 96 % of control | [8] 89 % of control | [10] 92 % of control

O=C(CCCl)c1ccccc1
inactive: [11] 97 % of control | [12] 94 % of control

O=C(Cn1ccc(=O)[nH]c1=O)N1CCOCC1
inactive: dose: 100.0 mg/kg/injection, schedule: Q01DX009 (ip), vehicle: water 91 % of control | [13] 100 % of control | dose: 200.0 mg/kg/injection, schedule: Q01DX009 (ip), vehicle: water 90 % of control | [14] 92 % of control | dose: 400.0 mg/kg/injection, schedule: Q01DX009 (ip), vehicle: water 104 % of control | [15] 94 % of control

O=C(NCCO)Nc1cccc(Cl)c1
inactive: dose: 100.0 mg/kg/injection, schedule: Q04DX002 (ip), vehicle: saline 100 % of control | dose: 200.0 mg/kg/injection, schedule: Q04DX002 (ip), vehicle: saline 100 % of control | dose: 400.0 mg/kg/injection, schedule: Q04DX002 (ip), vehicle: saline 111 % of control

Fc1ccc2c(c1)CC(CBr)O2 (configuration not stated)
inactive: [4] 100 % of control | [5] 105 % of control | [7] 103 % of control | [9] 103 % of control

CC(=O)OC(C)c1ccccc1 (configuration not stated)
inactive: [6] 112 % of control | [8] 106 % of control | [10] 101 % of control

S=C(S)NC1c2ccccc2-c2ccccc21 (tested in a mixture with another compound)
inactive: dose: 100.0 mg/kg/injection, schedule: Q01DX001 (ip), vehicle: carboxymethylcellulose (CMC) 94 % of control | dose: 200.0 mg/kg/injection, schedule: Q01DX001 (ip), vehicle: carboxymethylcellulose (CMC) 90 % of control | dose: 400.0 mg/kg/injection, schedule: Q01DX001 (ip), vehicle: carboxymethylcellulose (CMC) 96 % of control

O=C(c1ccccc1)c1ccc[n+](Cc2c(Cl)cccc2Cl)c1
inactive: dose: 75.0 mg/kg/injection, schedule: Q01DX001 (ip), vehicle: saline 101 % of control

COC(=O)CCC(=O)NCC(=O)OCc1ccccc1
inactive: dose: 100.0 mg/kg/injection, schedule: Q01DX001 (ip), vehicle: water 105 % of control | [13] 100 % of control | dose: 200.0 mg/kg/injection, schedule: Q01DX001 (ip), vehicle: water 107 % of control | [14] 96 % of control | dose: 400.0 mg/kg/injection, schedule: Q01DX001 (ip), vehicle: water 105 % of control | [15] 90 % of control

O=C(Nc1ccc2c(c1)Cc1cc(Br)ccc1-2)C(F)(F)F
inactive: dose: 100.0 mg/kg/injection, schedule: Q01DX009 (ip), vehicle: saline with Tween-80 97 % of control | dose: 200.0 mg/kg/injection, schedule: Q01DX009 (ip), vehicle: saline with Tween-80 92 % of control | dose: 400.0 mg/kg/injection, schedule: Q01DX009 (ip), vehicle: saline with Tween-80 94 % of control

O=C1CCCSc2ccccc21
inactive: [6] 106 % of control | [1] 108 % of control | [8] 104 % of control | [2] 106 % of control | [10] 106 % of control | [3] 101 % of control
